Measured values as given in the supplement of paper PMC10307832.

Experiments:
Test in all cases: relative viability (nuclei count vs DMSO), 5 days (fraction); higher = more cells survive
[1] = compound: C1=CC(=CC=C1NC(=S)NNC2=C(C=C(C=C2[N+](=O)[O-])C(F)(F)F)[N+](=O)[O-])F [Kobe2602] + COc1cccc2cc(-c3nc([C@H]4CC[C@H](C(=O)O)CC4)n4ncnc(N)c34)[nH]c12 [OSI-027] (partner 0.5 µM)
Procedure, shortened: (§1)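 Lung cancer cell lines were pin-tool dosed in 1536-well plates on the day after seeding, with either a lone drug or a fixed anchor-drug dose plus five library-drug doses (not always all listed) in √10 steps. Nuclei were counted on 4× images after 5 days. Relative viability is the ratio of treated-well to vehicle-well nuclei counts, with each value a median of duplicate plates.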

[2] = compound: C1=CC(=CC=C1NC(=S)NNC2=C(C=C(C=C2[N+](=O)[O-])C(F)(F)F)[N+](=O)[O-])F [Kobe2602] + O=C(CCCCCCC(=O)Nc1ccccc1)NO [Vorinostat] (partner 1 µM)
Procedure, shortened: as §1

[3] = compound: COc1cc2nccc(Oc3ccc(NC(=O)C4(C(=O)Nc5ccc(F)cc5)CC4)cc3)c2cc1OC [Cabozantinib] + COc1cccc2cc(-c3nc([C@H]4CC[C@H](C(=O)O)CC4)n4ncnc(N)c34)[nH]c12 [OSI-027] (partner 0.5 µM)
Procedure, shortened: as §1

[4] = compound: O[C@@H](COc1cccc2ncccc12)CN1CCN([C@@H]2c3ccccc3[C@@H]3[C@H](c4ccccc42)C3(F)F)CC1 [Zosuquidar] + Cc1nc(NC(=O)N2CCC[C@H]2C(N)=O)sc1-c1ccnc(C(C)(C)C(F)(F)F)c1 [Alpelisib] (partner 2 µM)
Procedure, shortened: as §1

Cell Line	relative viability ([1]; first compound 0.2 µM)	relative viability ([1]; first compound 0.6325 µM)	relative viability ([1]; first compound 2 µM)	relative viability ([1]; first compound 6.325 µM)	relative viability ([1]; first compound 20 µM)	relative viability ([2]; first compound 0.2 µM)	relative viability ([2]; first compound 0.6325 µM)	relative viability ([2]; first compound 2 µM)	relative viability ([2]; first compound 6.325 µM)	relative viability ([2]; first compound 20 µM)	relative viability ([3]; first compound 0.02 µM)	relative viability ([3]; first compound 0.06325 µM)	relative viability ([3]; first compound 0.2 µM)	relative viability ([3]; first compound 0.6325 µM)	relative viability ([3]; first compound 2 µM)	relative viability ([4]; first compound 0.01 µM)	relative viability ([4]; first compound 0.03162 µM)	relative viability ([4]; first compound 0.3162 µM)	relative viability ([4]; first compound 1 µM)	relative viability ([4]; first compound 0.1 µM)
NCI-H1793	0.252	0.218	0.238	0.275	0.327	0.702	0.881	0.764	0.795	0.936	0.196	0.254	0.198	0.253	0.197	0.717	0.665	0.825	0.776	–
NCI-H727	0.57	0.604	0.744	0.545	0.888	1.18	1.31	1.06	–	1.55	0.491	0.73	0.58	0.617	0.445	0.669	0.631	0.588	0.577	0.536
NCI-H838	0.427	0.433	0.397	0.417	0.371	0.68	0.767	0.654	0.703	0.683	0.458	0.38	0.339	0.414	0.366	0.995	0.994	1.07	1.07	0.822
NCI-H1734	0.657	0.68	0.619	0.588	0.745	0.863	0.912	0.844	0.841	0.8	0.433	0.611	0.59	0.586	0.573	0.815	0.666	0.809	0.643	0.631
EKVX	0.684	0.68	0.707	0.659	0.695	0.678	0.879	0.652	0.757	0.672	0.655	0.981	0.637	0.679	0.778	0.887	0.846	0.781	0.94	0.634
NCI-H647	0.647	0.751	0.57	0.841	0.639	0.613	0.582	0.64	0.583	0.601	0.589	0.633	0.641	0.636	0.548	1.25	1.12	1.11	1.39	1.28
LOU-NH91	0.739	0.786	0.69	0.754	0.71	0.886	1.02	0.837	0.905	0.863	0.65	0.744	–	0.652	0.704	0.702	0.717	0.718	0.725	0.6
COR-L23	0.744	0.782	0.71	0.811	0.737	0.476	0.491	0.405	0.472	0.404	0.88	0.965	0.94	0.895	0.784	0.88	0.783	0.902	0.723	0.789
NCI-H1437	0.913	0.913	0.891	0.949	0.855	0.855	0.739	0.78	0.791	0.625	0.896	0.963	0.882	0.921	0.922	0.966	0.961	1.01	0.994	0.935
EPLC-272H	0.3	0.286	0.289	0.311	0.32	0.494	0.676	0.557	0.402	0.479	0.257	0.326	0.215	0.345	0.29	0.946	0.999	0.936	0.805	0.801
NCI-H1666	0.879	0.831	0.851	0.928	0.789	1.06	1.04	1.13	1.01	0.981	0.694	0.836	0.816	0.846	0.913	0.876	1.04	0.912	0.863	1.04
NCI-H441	0.616	0.563	0.536	0.631	0.783	0.756	0.711	0.808	0.646	0.697	0.428	0.653	0.663	0.564	0.559	0.998	0.766	–	0.591	0.732
HCC-44	0.484	0.597	0.377	0.586	0.683	0.999	1.04	1.08	1.05	0.99	–	0.646	0.556	0.557	0.408	0.753	0.817	0.885	0.755	0.842
NCI-H23	0.499	0.673	0.541	0.638	0.667	0.616	0.645	0.628	0.544	0.729	–	0.729	0.645	0.624	0.489	0.669	0.718	0.704	0.687	0.728
SW 1573	0.722	0.535	0.531	0.62	0.303	0.743	0.868	0.676	0.868	0.77	0.59	0.891	0.669	0.606	0.492	0.721	0.739	0.89	0.8	0.651
LU99A	0.336	0.329	0.281	0.342	0.333	0.491	0.493	0.539	0.51	0.53	0.231	0.298	0.274	0.31	0.311	0.472	0.507	0.617	0.529	0.475
